From patent publication US10005818B2, “Derivative peptide compounds and methods of use” (REALTA HOLDINGS, LLC, priority 2010, dated 2018)
Where two headings read alike, the source gives them in different places. Ends that are not written are not given here.

Tests used:
HSV-1 = assay: HSV-1-GFP infection of CV-1 cells, flow cytometry; type: cell-based, Herpes Simplex Virus Type 1; settings: added to CV-1 cells before infection; 16 hours
Method: CV-1 cells were infected with HSV-1-GFP for 16 hours. Post-infection, CV-1 cells were detected by flow cytometry (FIG. 33). […] Acyclovir (the standard of care for severe HSV-1 infections) was also added as a control at the same molar ratio.

CV-1 cells = assay: Toxicity in CV-1 cells
Solubility in water = type: physicochemical
[1] = 60 mg [240 mg/kg] i.v.; for ALT / AST / AlkPhos / BUN / Bilirubin / CPK / Creatinine / GGT / Lipase / Platelets / RBC / WBC: rats, n = 6
[2] = for ALT / AST / AlkPhos / BUN / Bilirubin / CPK / Creatinine / GGT / Lipase / Platelets / RBC / WBC: rats
Method: Toxicity studies were later performed with larger numbers of animals (n=18 in the treatment group) using a high-dose at the upper end of the therapeutic range (PA-PEG24 (SEQ ID NO: 21) at 40 mg [160 mg/kg] i.v.). Eight animals were sacrificed at day 3, and ten were sacrificed at day 14.

acute kidney injury = assay: Acute kidney injury after xenotransfusion in AIHTR rat model (IVIG vs PIC1); type: in vivo; settings: prophylaxis 40 mg/animal
Method: For both experiments, animals allotted to the saline control group received NS prior to huRBC transfusion whereas the CVF group received 130 μg CVF (Complement Technologies, Inc.) intra-peritoneum (I.P.) 24 hours prior to the huRBC transfusion.
Using weight-based doses of ketamine and acepromazine, animals were sedated throughout the course of the experiment with periodic monitoring of vital signs. Blood samples were collected into EDTA microtainer tubes (BD) from the animals prior to the huRBC transfusion and then at 30 seconds, 5 minutes, 20 minutes, 60 minutes and 120 minutes after the huRBC transfusion. […] These samples were kept shaking at room temperature prior to processing and centrifuged at 2655×g for five minutes to separate out the plasma and sediment the RBCs. Plasma was aliquoted and the RBC pellet was processed separately as described below. Upon completion of the final (120 minutes or 360 minutes) blood draw, the animal was euthanized using Fatal Plus (Vortech). A necropsy was completed to collect organs (liver, spleen and bilateral kidney) for histopathology. […] Hematoxylin and eosin (H&E) stained sections were reviewed by a blinded pathologist.
To ascertain if the intravascular toxic free Hb would cause acute kidney injury, the animals were monitored for 6 hours post-transfusion.

[3] = tested on: hypoxic ischemic brain injury; type: in vivo, Wistar rat
[4] = tested on: complement-mediated hemolysis of transfused huRBCs; assay: AIHTR Wistar rat model, 15% xenotransfusion of human RBCs; type: in vivo; settings: CVF 130 μg I.P. 24 hours prior to transfusion
Method: This process generates 1 ml huRBCs at 80% hematocrit, which was given as a 15% transfusion to the rats.
Plasma generated from the above experiments was analyzed for the free hemoglobin using spectrophotometry, as described previously (Shah et al. “Clinical hypothermia temperatures increase complement activation and cell destruction via the classical pathway.” J Transl Med 2014; 12:181.).

[5] = tested on: complement activation in factor B-depleted human sera; type: biochemical; settings: factor B depleted serum
Method in brief: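 Peptides at 0.77 mM final in factor B-depleted human serum, or serially diluted in it, incubated 1 h at 37 °C. Then diluted into GVBS++ with sensitized sheep RBCs for 1 h at 37 °C, with hemolysis read at 412 nm. Percent lysis relative to serum-only control, soluble peptides normalized to water and insoluble ones to DMSO, triplicate means.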

[6] = 40 mg [160 mg/kg] i.v., 48 Hr, n = 8
[7] = 40 mg [160 mg/kg] i.v., Day14, n = 10

Nc1nc2c(ncn2COCCO)c(=O)[nH]1 [Acyclovir, reference compound]
inhibition of HSV-1 infection / replication (HSV-1): never able to completely inhibit replication
toxicity in CV-1 cells (CV-1 cells): minimal toxicity

CC[C@H](C)[C@H](N)C(=O)N[C@@H](C)C(=O)N[C@@H](CC(C)C)C(=O)N[C@H](C(=O)N[C@@H](CC(C)C)C(=O)N[C@@H](CCC(=O)O)C(=O)N1CCC[C@H]1C(=O)N[C@H](C(=O)N[C@@H](CS)C(=O)N[C@@H](CS)C(=O)N[C@@H](CCC(N)=O)C(=O)N[C@@H](CCC(=O)O)C(=O)N[C@@H](CCCNC(=N)N)C(=O)N[C@@H](C)C(=O)N[C@@H](C)C(=O)NCCOCCOCCOCCOCCOCCOCCOCCOCCOCCOCCOCCOCCOCCOCCOCCOCCOCCOCCOCCOCCOCCOCCOCCOCCC(=O)O)[C@@H](C)CC)[C@@H](C)CC [PA-dPEG24]
solubility in water / aqueous solutions (Solubility in water): soluble in water
Solubility in water (Solubility in water; Table 6, PEGylated PA peptides): Yes
Solubility in water (Solubility in water; Table 7, PEGylated and sarcosine/alanine substitution peptides): Yes
organ histology ([1]; brain, heart, lungs, liver, spleen, kidneys, pancreas): Normal histology
blood work (CBC and complete blood chemistry) ([1]; first 24 hours, 48 hours, day 7 or day 14): No toxicities
ALT ([1]; 48 Hr): 44.0 (±10.4) U/L
AST ([1]; 48 Hr): 69.0 (±8.7) U/L
AlkPhos ([1]; 48 Hr): 194 (±29) U/L
BUN ([1]; 48 Hr): 15.8 (±2.1) mg/dL
Bilirubin ([1]; 48 Hr): 0.1 (±0) mg/dL
CPK ([1]; 48 Hr): 142 (±47) U/L
Creatinine ([1]; 48 Hr): 0.3 (±0) mg/dL
GGT ([1]; 48 Hr): 1 (±0) U/L
Lipase ([1]; 48 Hr): 10.3 (±1.5) U/L
Platelets ([1]; 48 Hr): 1045 (±156) 10^3/μL
RBC ([1]; 48 Hr): 5.3 (±0.3) 10^6/μL
WBC ([1]; 48 Hr): 10.5 (±2.9) 10^3/mL
ALT ([1]; Day7): 76.3 (±10.9) U/L
AST ([1]; Day7): 84.3 (±6.74) U/L
AlkPhos ([1]; Day7): 147 (±34) U/L
BUN ([1]; Day7): 13.5 (±1.64) mg/dL
Bilirubin ([1]; Day7): 0.1 (±0) mg/dL
CPK ([1]; Day7): 316 (±90) U/L
Creatinine ([1]; Day7): 0.4 (±0.1) mg/dL
GGT ([1]; Day7): 1 (±0) U/L
Lipase ([1]; Day7): 8.5 (±1.05) U/L
Platelets ([1]; Day7): 623 (±417) 10^3/μL
RBC ([1]; Day7): 5.8 (±0.5) 10^6/μL
WBC ([1]; Day7): 5.4 (±1.12) 10^3/mL
ALT ([1]; Day14): 55.8 (±5.6) U/L
AST ([1]; Day14): 104 (±15) U/L
AlkPhos ([1]; Day14): 154 (±42) U/L
BUN ([1]; Day14): 14.7 (±1.0) mg/dL
Bilirubin ([1]; Day14): 0.1 (±0) mg/dL
CPK ([1]; Day14): 580 (±172) U/L
Creatinine ([1]; Day14): 0.4 (±0.1) mg/dL
GGT ([1]; Day14): 1 (±0) U/L
Lipase ([1]; Day14): 9.7 (±2.0) U/L
blood chemistry assay results (CBC, superchem, coagulation) ([2]; 40 mg [160 mg/kg] i.v.): no differences between pretreatment, day 3 or day 14 values
organ histology ([2]; 40 mg [160 mg/kg] i.v., day 3 and day 14): no histological evidence for toxicity in any organ
single-dose toxicological evaluation ([2]; rat, in vivo): no safety concerns
ALT [2, 6]: 62.8 (±4.0) U/L
AST [2, 6]: 108 (±26) U/L
AlkPhos [2, 6]: 104 (±19) U/L
BUN [2, 6]: 17.8 (±3.2) mg/dL
Bilirubin [2, 6]: 0.1 (±0) mg/dL
CPK [2, 6]: 538 (±128) U/L
Creatinine [2, 6]: 0.3 (±0) mg/dL
GGT [2, 6]: 1.0 (±0) U/L
Lipase [2, 6]: 11.8 (±1.5) U/L
Platelets [2, 6]: 987 (±93) 10^3/μL
RBC [2, 6]: 5.8 (±0.5) 10^6/μL
WBC [2, 6]: 6.0 (±3.0) 10^3/mL
ALT [2, 7]: 77.4 (±13.9) U/L
AST [2, 7]: 111 (±14) U/L
AlkPhos [2, 7]: 115 (±56) U/L
BUN [2, 7]: 13.2 (±1.9) mg/dL
Bilirubin [2, 7]: 0.1 (±0) mg/dL
CPK [2, 7]: 592 (±163) U/L
Creatinine [2, 7]: 0.3 (±0) mg/dL
GGT [2, 7]: 1.1 (±0.4) U/L
Lipase [2, 7]: 6.4 (±1.3) U/L
Platelets [2, 7]: 825 (±229) 10^3/μL
RBC [2, 7]: 6.6 (±0.4) 10^6/μL
WBC [2, 7]: 7.3 (±2.5) 10^3/mL
toxicity in CV-1 cells (CV-1 cells): minimal toxicity

Immune globulin intravenous [IVIG]
gross appearance of kidneys at necropsy (acute kidney injury): looked darker and enlarged
kidney weight (acute kidney injury): significant increase in weight compared to animals receiving PIC1
gross hematuria / urine appearance (acute kidney injury; 6 hours post-transfusion): two of the three animals
kidney histopathology (acute kidney injury; H&E): early acute tubular necrosis

cobra venom factor [CVF]
brain injury ([3]; CVF injection before ligation/hypoxia): almost completely attenuated brain injury
systemic complement activity ([3]; CVF injection, for 72 hours after injection): almost completely eliminated
free hemoglobin in rat plasma [4]: low levels of free hemoglobin

dPEG24-IALILEPICCQERAA (cysteine pairing not given here) [dPEG24-PA]
solubility in water / aqueous solutions (Solubility in water): soluble in water
inhibition of complement activity in hemolytic assay [5]: varying degrees of complement inhibition

dPEG24-IALILEPICCQERAA-dPEG24 (cysteine pairing not given here) [dPEG24-PA-dPEG24]
solubility in water / aqueous solutions (Solubility in water): soluble in water
inhibition of complement activity in hemolytic assay [5]: varying degrees of complement inhibition
